Literature values in PubChem BioAssay AID1259409 (Chemical Carcinogenesis Research Information System (CCRIS), 2018).

Tested on: rodent chemically induced tumor inhibition, incidence and multiplicity
Assay: CCRIS tumor inhibitor studies

For `O=C1C=CC(=O)c2c(O)cccc21`, the “tumour outcome (control, treated, inhibition, significance)” value (Carcinogen: AZOXYMETHANE [25843-45-2], Dose [Inhibitor]: 200 PPM IN DIET FOR 4 WK BEGINNING 1 WK PRIOR TO FIRST CARCINOGEN DOSE (STUDY DURATION: 35 WK), Route [Inhibitor]: ORAL, Species: RAT, Strain/Sex: F344/MALE, Target Tissue: Type of Lesion: COLON: ADENOMA, Dose [Carcinogen]: 15 MG/KG BW 1X/WK FOR 3 WK (STUDY DURATION: 35 WK), Promoter: NONE) is given as 6/28 (21%), 4/30 (13%), 38%, not significant, the “tumour outcome (control, treated, inhibition, significance)” value (Carcinogen: AZOXYMETHANE [25843-45-2], Dose [Inhibitor]: 200 PPM IN DIET FOR 4 WK BEGINNING 1 WK PRIOR TO FIRST CARCINOGEN DOSE (STUDY DURATION: 35 WK), Route [Inhibitor]: ORAL, Species: RAT, Strain/Sex: F344/MALE, Target Tissue: Type of Lesion: COLON: CARCINOMA, Dose [Carcinogen]: 15 MG/KG BW 1X/WK FOR 3 WK (STUDY DURATION: 35 WK), Promoter: NONE) is given as 8/28 (29%), 11/30 (37%), -28%, not significant and the “tumour outcome (control, treated, inhibition, significance)” value (Carcinogen: AZOXYMETHANE [25843-45-2], Dose [Inhibitor]: 200 PPM IN DIET FOR 4 WK BEGINNING 1 WK PRIOR TO FIRST CARCINOGEN DOSE (STUDY DURATION: 35 WK), Route [Inhibitor]: ORAL, Species: RAT, Strain/Sex: F344/MALE, Target Tissue: Type of Lesion: SMALL INTESTINE: CARCINOMA, Dose [Carcinogen]: 15 MG/KG BW 1X/WK FOR 3 WK (STUDY DURATION: 35 WK), Promoter: NONE) is given as 7/28 (25%), 2/30 (7%), 72%, p<0.05.

In the case of `CC1(C)CC[C@]2(CO)CC[C@]3(C)C(=CC[C@@H]4[C@@]5(C)CC[C@H](O)[C@@](C)(CO)[C@@H]5CC[C@]43C)[C@@H]2C1`, the “tumour outcome (control, treated, inhibition, significance)” value (Carcinogen: 7,12-DIMETHYLBENZ[A]ANTHRACENE, 57-97-6, Dose [Inhibitor]: 81 NMOL IN 100 µL ACETONE/DMSO (99:1) APPLIED 40 MIN PRIOR TO EACH PROMOTER DOSE (STUDY DURATION: 18 WK), Route [Inhibitor]: DERMAL, Species: MOUSE, Strain/Sex: ICR, Target Tissue: Type of Lesion: SKIN: CARCINOMA, Dose [Carcinogen]: 100 UG ONCE, Promoter: 12-O-TETRADECANOYLPHORBOL-13-ACETATE, 16561-29-8) is given as 100%, 40%, 60%, not calculated.

For `COc1ccc2cc1Oc1ccc(cc1)C[C@H]1c3c(cc4c(c3Oc3cc5c(cc3OC)CCN(C)[C@@H]5C2)OCO4)CCN1C`, the “tumour outcome (control, treated, inhibition, significance)” value (Carcinogen: 7,12-DIMETHYLBENZ[A]ANTHRACENE, 57-97-6, Dose [Inhibitor]: 0, 0.005% IN DIET BEGINNING 1 D POST CARCINOGEN TREATMENT AND CONTINUING FOR DURATION OF STUDY (STUDY DURATION: 18 WK), Route [Inhibitor]: ORAL, Species: MOUSE, Strain/Sex: ICR/FEMALE, Target Tissue: Type of Lesion: SKIN: PAPILLOMA, Dose [Carcinogen]: 50 UG IN 100 µL ACETONE ONCE, Promoter: 12-O-TETRADECANOYLPHORBOL-13-ACETATE, 16561-29-8) is listed as 100%, 95%, 5%, not significant, the “tumour outcome (control, treated, inhibition, significance)” value (Carcinogen: 7,12-DIMETHYLBENZ[A]ANTHRACENE, 57-97-6, Dose [Inhibitor]: 0, 0.005% IN DIET BEGINNING 1 D POST CARCINOGEN TREATMENT AND CONTINUING FOR DURATION OF STUDY (STUDY DURATION: 25 WK), Route [Inhibitor]: ORAL, Species: MOUSE, Strain/Sex: ICR/FEMALE, Target Tissue: Type of Lesion: SKIN: PAPILLOMA, Dose [Carcinogen]: 50 UG IN 100 µL ACETONE ONCE, Promoter: 12-O-TETRADECANOYLPHORBOL-13-ACETATE, 16561-29-8, MEZEREIN, 34807-41-5, Promoter: 12-O-TETRADECANOYLPHORBOL-13-ACETATE, 16561-29-8, MEZEREIN, 34807-41-5) is listed as 75%, 45%, 40%, not calculated and the “tumour outcome (control, treated, inhibition, significance)” value (Carcinogen: 7,12-DIMETHYLBENZ[A]ANTHRACENE, 57-97-6, Dose [Inhibitor]: 0, 2 UMOL 2/WK 30 MIN PRIOR TO EACH PROMOTER DOSE BEGINNING 1 WK POST CARCINOGEN DOSE (STUDY DURATION: 18 WK), Route [Inhibitor]: DERMAL, Species: MOUSE, Strain/Sex: ICR/FEMALE, Target Tissue: Type of Lesion: SKIN: PAPILLOMA, Dose [Carcinogen]: 50 UG ONCE, Promoter: 12-O-TETRADECANOYLPHORBOL-13-ACETATE, 16561-29-8) is listed as 100%, 27%, 73%, not calculated. For the same compound, the “tumour outcome (control, treated, inhibition, significance)” value (Carcinogen: 7,12-DIMETHYLBENZ[A]ANTHRACENE, 57-97-6, Dose [Inhibitor]: 0, 20 UMOL/MOUSE 2/WK FOR 18 WK APPLIED 5 MIN PRIOR TO EACH PROMOTER DOSE (STUDY DURATION: 19 WK), Route [Inhibitor]: DERMAL, Species: MOUSE, Strain/Sex: CD-1/FEMALE, Target Tissue: Type of Lesion: SKIN: PAPILLOMA, Dose [Carcinogen]: 100 UG IN 200 µL ACETONE ONCE, Promoter: 12-O-TETRADECANOYLPHORBOL-13-ACETATE, 16561-29-8) was 100%, 30%, 70%, p<0.01.

In the case of `CC(C)[C@@H](C)/C=C/[C@@H](C)[C@H]1CC[C@H]2C3=CC=C4C[C@@H](O)CC[C@]4(C)[C@H]3CC[C@]12C`, the “tumour outcome (control, treated, inhibition, significance)” value (Carcinogen: 7,12-DIMETHYLBENZ[A]ANTHRACENE, 57-97-6, Dose [Inhibitor]: 0, 2 UMOL IN 100 µL ACETONE:DIMETHYLSULFOXIDE (9:1) 2/WK FOR 18 WK APPLIED 30 MIN PRIOR TO EACH PROMOTER DOSE (STUDY DUR, Route [Inhibitor]: DERMAL, Species: MOUSE, Strain/Sex: ICR/FEMALE, Target Tissue: Type of Lesion: SKIN: PAPILLOMA, Dose [Carcinogen]: 50 UG IN 100 µL ACETONE ONCE, Promoter: 12-O-TETRADECANOYLPHORBOL-13-ACETATE, 16561-29-8) is given as 100%, 40%, 60%, not calculated.

In the case of `CN1CCN(CCCN2c3ccccc3Sc3ccc(C(F)(F)F)cc32)CC1`, the “tumour outcome (control, treated, inhibition, significance)” value (Carcinogen: AZOXYMETHANE, 25843-45-2, Dose [Inhibitor]: 0, 15 MG/KG BW IN OLIVE OIL 1/2 D FOR 35 WK BEGINNING WITH START OF CARCINOGEN TREATMENT (STUDY DURATION: 35 WK), Route [Inhibitor]: SUBCUTANEOUS, Species: RAT, Strain/Sex: WISTAR/MALE, Target Tissue: Type of Lesion: COLON: TUMORS, Dose [Carcinogen]: 7.4 MG/KG BW IN 0.9% SALINE 1/WK FOR 10 WK, Promoter: NONE USED) is listed as 8/17 (47%), 11/17 (65%), -38%, not significant and the “tumour outcome (control, treated, inhibition, significance)” value (Carcinogen: AZOXYMETHANE, 25843-45-2, Dose [Inhibitor]: 0, 30 MG/KG BW IN OLIVE OIL 1/2 D FOR 35 WK BEGINNING WITH START OF CARCINOGEN TREATMENT (STUDY DURATION: 35 WK), Route [Inhibitor]: SUBCUTANEOUS, Species: RAT, Strain/Sex: WISTAR/MALE, Target Tissue: Type of Lesion: COLON: TUMORS, Dose [Carcinogen]: 7.4 MG/KG BW IN 0.9% SALINE 1/WK FOR 10 WK, Promoter: NONE USED) is listed as 8/17 (47%), 9/20 (45%), 4%, not significant.

In the case of `O=c1c(O)c(-c2cc(O)c(O)c(O)c2)oc2cc(O)ccc12`, the “tumour outcome (control, treated, inhibition, significance)” value (Carcinogen: (+/-)-7BETA,8ALPHA-DIHYDROXY-9ALPHA,10ALPHA-EPOXY-7,8,9,10-TETRAHYDROBENZO[A]PYR ENE, 58917-67-2, Dose [Inhibitor]: 0, 1400 NMOL (TOTAL DOSE) 10 MIN PRIOR TO CARCINOGEN DOSE INJECTED AS 1/7, 2/7,AND 4/7 OF THE TOTAL ON DAYS 1, 8, AND 15, Route [Inhibitor]: INTRAPERITONEAL, Species: MOUSE, Strain/Sex: ICR/MALE,FEMALE, Target Tissue: Type of Lesion: LUNG: TUMOR, Dose [Carcinogen]: 30 NMOL (TOTAL DOSE) INJECTED IN DOSES OF 1/7, 2/7, AND 4/7 ON DAYS 1,8, AND 15 OF LIFE, RESPECTIVELY, Promoter: NONE USED) is listed as 93%, 50%, 46%, p<0.05, the “tumour outcome (control, treated, inhibition, significance)” value (Carcinogen: (+/-)-7BETA,8ALPHA-DIHYDROXY-9ALPHA,10ALPHA-EPOXY-7,8,9,10-TETRAHYDROBENZO[A]PYR ENE, 58917-67-2, Dose [Inhibitor]: 0, 1400 NMOL (TOTAL DOSE) APPLIED 10 MIN PRIOR TO CARCINOGEN DOSE INJECTED AS 1/7, 2/7, AND 4/7 OF THE TOTAL ON DAYS 1,, Route [Inhibitor]: INTRAPERITONEAL, Species: MOUSE, Strain/Sex: ICR/MALE,FEMALE, Target Tissue: Type of Lesion: LUNG: TUMOR, Dose [Carcinogen]: 15 NMOL (TOTAL DOSE) INJECTED IN DOSES OF 1/7, 2/7, AND 4/7 ON DAYS 1, 8, AND 15 OF LIFE, RESPECTIVELY, Promoter: NONE USED) is listed as 63%, 41%, 35%, p<0.05 and the “tumour outcome (control, treated, inhibition, significance)” value (Carcinogen: (+/-)-7BETA,8ALPHA-DIHYDROXY-9ALPHA,10ALPHA-EPOXY-7,8,9,10-TETRAHYDROBENZO[A]PYR ENE, 58917-67-2, Dose [Inhibitor]: 0, 2500 NMOL IN 200 µL ACETONE:DMSO (90:10) ONCE APPLIED 5 MIN PRIOR TO CARCINOGEN DOSE (STUDY DURATION: 21 WK), Route [Inhibitor]: DERMAL, Species: MOUSE, Strain/Sex: CD-1/FEMALE, Target Tissue: Type of Lesion: SKIN: TUMOR, Dose [Carcinogen]: 200 NMOL IN ACETONE:DMSO (90:10) ONCE, Promoter: 12-O-TETRADECANOYLPHORBOL-13-ACETATE, 16561-29-8) is listed as 59%, 68%, -15%, not significant. For the same compound, the “tumour outcome (control, treated, inhibition, significance)” value (Carcinogen: BENZO[A]PYRENE, 50-32-8, Dose [Inhibitor]: 0, 1400 NMOL (TOTAL DOSE) APPLIED 10 MIN PRIOR TO CARCINOGEN DOSE INJECTED AS 1/7, 2/7, AND 4/7 OF THE TOTAL ON DAYS 1,, Route [Inhibitor]: INTRAPERITONEAL, Species: MOUSE, Strain/Sex: ICR/MALE,FEMALE, Target Tissue: Type of Lesion: LUNG: TUMOR, Dose [Carcinogen]: 450 NMOL (TOTAL DOSE) INJECTED IN DOSES OF 1/7, 2/7, AND 4/7 ON DAYS 1, 8, AND 15 OF LIFE, RESPECTIVELY, Promoter: NONE USED) was 73%, 79%, -8%, not significant and the “tumour outcome (control, treated, inhibition, significance)” value (Carcinogen: BENZO[A]PYRENE, 50-32-8, Dose [Inhibitor]: 0, 2500 NMOL IN 200 µL ACETONE:DMSO (90:10) ONCE APPLIED 5 MIN PRIOR TO CARCINOGEN DOSE (STUDY DURATION: 21 WK), Route [Inhibitor]: DERMAL, Species: MOUSE, Strain/Sex: CD-1/FEMALE, Target Tissue: Type of Lesion: SKIN: TUMOR, Dose [Carcinogen]: 50 NMOL IN ACETONE:DMSO (90:10) ONCE, Promoter: 12-O-TETRADECANOYLPHORBOL-13-ACETATE, 16561-29-8) was 50%, 54%, -8%, not significant.
